# According to the supplement of paper PMC11208160:
# Assay: recombinant UMI read abundance after kanamycin selection (control-corrected) (log10(CPM+1)); higher = more efficient recombination; extreme values may be limits of the assay; sequences stand for … in AGTGCAGAGAAAATCGGCCAGTTTTCTCTGCCTGCAGTCCGCATGCCGTGGGACCCCTTGGGTTCTAACCTGTTGCCTAGATTTATGCAGCGGACTGCCTTTCTCCCAAAGTGATAAACCGG…AGGTTGGTTTCACT; site = the 11-nt donor
# Method in brief: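 For the IS621 bridge recombinase, a pooled Escherichia coli screen tested donor and donor-binding-loop pairs. Cells received the pair library together with a target plasmid encoding a fixed target and T7-inducible recombinase, then went onto IPTG (0.07 mM) plus kanamycin or unselected plates in duplicate. After PCR across the donor–target junction and sequencing, recombinant UMI counts were normalized to CPM, averaged, and scaled by control-derived factors. Each value is given as log10(CPM+1).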
row,Sequence,recombinant UMI read abundance (log10)
1,GGTTTGGCATGGACCGGTTTTCCCGGTAATCCGTATTTGCT (site GGTTTGGCTAG),0
2,GGTTTGGCATGGACCGGTTTTCCCGGTAATCCGTATTTGCT (site TGTTTGGCTAG),0.00406
3,GTAAACGCATGGACCGGTTTTCCCGGTAATCCGTATTTGTT (site GTAAACGCTAA),2.59
4,GTAACGCCATGGACCGGTTTTCCCGGTAATCCGTATTTGGT (site GTAACGCCTAC),0.517
5,GTAAGTACATGGACCGGTTTTCCCGGTAATCCGTATTTGAC (site GTAAGTACTGT),2.96
6,GTAAGTACATGGACCGGTTTTCCCGGTAATCCGTATTTGAC (site GTACGTACTGT),0
7,GTAAGTACATGGACCGGTTTTCCCGGTAATCCGTATTTGAC (site GTAGGTACTGT),0.255
8,GTAAGTACATGGACCGGTTTTCCCGGTAATCCGTATTTGAC (site GTATGTACTGT),0.67
9,GTAATATCATGGACCGGTTTTCCCGGTAATCCGTATTTGCA (site GTAATATCTTG),2.6
10,GTAATCACATGGACCGGTTTTCCCGGTAATCCGTATTTGCG (site GTAATCACTCG),2.48
11,GTACGAGCATGGACCGGTTTTCCCGGTAATCCGTATTTGCA (site GTACGAGCTTG),2.55
12,GTACGAGCATGGACCGGTTTTCCCGGTAATCCGTATTTGCA (site GTCCGAGCTTG),0.87
13,GTACGAGCATGGACCGGTTTTCCCGGTAATCCGTATTTGCA (site GTGCGAGCTTG),2.02
14,GTACGAGCATGGACCGGTTTTCCCGGTAATCCGTATTTGCA (site GTTCGAGCTTG),0.659
15,GTACTAACATGGACCGGTTTTCCCGGTAATCCGTATTTGGA (site ATACTAACTTC),0.569
16,GTACTAACATGGACCGGTTTTCCCGGTAATCCGTATTTGGA (site CTACTAACTTC),0.455
17,GTACTAACATGGACCGGTTTTCCCGGTAATCCGTATTTGGA (site GTACTAACTTC),1.29
18,GTACTAACATGGACCGGTTTTCCCGGTAATCCGTATTTGGA (site TTACTAACTTC),0.593
19,GTAGATACATGGACCGGTTTTCCCGGTAATCCGTATTTGAC (site GTAGATACTGT),2.29

row,Sequence,recombinant UMI read abundance (log10)
1,GTAGATACATGGACCGGTTTTCCCGGTAATCCGTATTTGAC (site GTAGCTACTGT),0
2,GTAGATACATGGACCGGTTTTCCCGGTAATCCGTATTTGAC (site GTAGGTACTGT),1.38
3,GTAGATACATGGACCGGTTTTCCCGGTAATCCGTATTTGAC (site GTAGTTACTGT),0.903
4,GTAGATTCATGGACCGGTTTTCCCGGTAATCCGTATTTGCA (site GTAGATTCTTG),2.86
5,GTAGCAGCATGGACCGGTTTTCCCGGTAATCCGTATTTGGA (site GTAGCAGCTTC),0.62
6,GTAGCTCCATGGACCGGTTTTCCCGGTAATCCGTATTTGAA (site GTAGCTCCTTT),1
7,GTAGGGACATGGACCGGTTTTCCCGGTAATCCGTATTTGAC (site GTAGGAACTGT),2.21
8,GTAGGGACATGGACCGGTTTTCCCGGTAATCCGTATTTGAC (site GTAGGCACTGT),2.04
9,GTAGGGACATGGACCGGTTTTCCCGGTAATCCGTATTTGAC (site GTAGGGACTGT),2.63
10,GTAGGGACATGGACCGGTTTTCCCGGTAATCCGTATTTGAC (site GTAGGTACTGT),1.87
11,GTAGGTACATGGACCGGTTTTCCCGGTAATCCGTATTTGTT (site GTAGGTACTAA),1.01
12,GTAGGTCCATGGACCGGTTTTCCCGGTAATCCGTATTTGAC (site GTAGGTACTGT),0
13,GTAGGTCCATGGACCGGTTTTCCCGGTAATCCGTATTTGAC (site GTAGGTCCTGT),0
14,GTAGGTCCATGGACCGGTTTTCCCGGTAATCCGTATTTGAC (site GTAGGTGCTGT),0
15,GTAGGTCCATGGACCGGTTTTCCCGGTAATCCGTATTTGAC (site GTAGGTTCTGT),0
16,GTAGGTTCATGGACCGGTTTTCCCGGTAATCCGTATTTGAC (site GTAGGTACTGT),1.88
17,GTAGGTTCATGGACCGGTTTTCCCGGTAATCCGTATTTGAC (site GTAGGTCCTGT),1.78
18,GTAGGTTCATGGACCGGTTTTCCCGGTAATCCGTATTTGAC (site GTAGGTGCTGT),0
19,GTAGGTTCATGGACCGGTTTTCCCGGTAATCCGTATTTGAC (site GTAGGTTCTGT),2.46

row,Sequence,recombinant UMI read abundance (log10)
1,GTAGTATCATGGACCGGTTTTCCCGGTAATCCGTATTTGAT (site CTAGTATCTGT),1.05
2,GTAGTATCATGGACCGGTTTTCCCGGTAATCCGTATTTGAT (site GTAGTATCTAT),3.08
3,GTAGTGGCATGGACCGGTTTTCCCGGTAATCCGTATTTGGT (site GAAGTGGCTAC),0.458
4,GTAGTGGCATGGACCGGTTTTCCCGGTAATCCGTATTTGGT (site GCAGTGGCTAC),0.771
5,GTAGTGGCATGGACCGGTTTTCCCGGTAATCCGTATTTGGT (site GGAGTGGCTAC),0.028
6,GTAGTGGCATGGACCGGTTTTCCCGGTAATCCGTATTTGGT (site GTAGTGGCTAC),1.85
7,GTAGTGTCATGGACCGGTTTTCCCGGTAATCCGTATTTGAC (site CTAGTATCTGT),2.03
8,GTAGTGTCATGGACCGGTTTTCCCGGTAATCCGTATTTGAC (site GTAGTGTCTGT),3.23
9,GTAGTTTCATGGACCGGTTTTCCCGGTAATCCGTATTTGTA (site GTAGTTTCTTA),2.61
10,GTATGCACATGGACCGGTTTTCCCGGTAATCCGTATTTGCA (site GTATGCACTTA),0.546
11,GTATGCACATGGACCGGTTTTCCCGGTAATCCGTATTTGCA (site GTATGCACTTC),0.0124
12,GTATGCACATGGACCGGTTTTCCCGGTAATCCGTATTTGCA (site GTATGCACTTG),2.67
13,GTATGCACATGGACCGGTTTTCCCGGTAATCCGTATTTGCA (site GTATGCACTTT),0.427
14,GTATGCACATGGACCGGTTTTCCCGGTAATCCGTATTTGTA (site ATATGCACTTA),0.664
15,GTATGCACATGGACCGGTTTTCCCGGTAATCCGTATTTGTA (site CTATGCACTTA),0.712
16,GTATGCACATGGACCGGTTTTCCCGGTAATCCGTATTTGTA (site GAATGCACTTA),0.0229
17,GTATGCACATGGACCGGTTTTCCCGGTAATCCGTATTTGTA (site GCATGCACTTA),0.671
18,GTATGCACATGGACCGGTTTTCCCGGTAATCCGTATTTGTA (site GGATGCACTTA),0.58
19,GTATGCACATGGACCGGTTTTCCCGGTAATCCGTATTTGTA (site GTAAGCACTTA),0.776
